Results from US20090082400A1, “SOLUBLE PYRONE ANALOGS METHODS AND COMPOSITIONS” (priority 2007, published 2009).
Several values for one entry are separate records, joined by “and”; a condition that tells them apart may be missing. Identical values can stand only once. Like-named read-outs stand apart in the source and are kept apart here.

What was measured:
[1] = Pharmacokinetic parameters of oral tacrolimus in the presence of Q-Captisol in healthy human volunteers; format: in vivo
Description: Tacrolimus-quercetin pharmacokinetic interactions are evaluated in N=15 healthy male subjects in an open-label, three-way crossover study of i.v. or oral quercetin-sulfobutylether-7-β-cyclodextrin (Q-Captisol) administered in combination with oral tacrolimus. Q-Captisol stock dosing solutions are prepared in aqueous Captisol (CyDex Inc.) using sodium hydroxide to facilitate dissolution. The final solution is adjusted to a final pH=7.5 to 8.0 using dilute sodium hydroxide or HCl. Stock solutions are aseptically filtered into a sterile IV bag and diluted to final volume with sterile saline. Q-Captisol oral dosing solutions are prepared by transferring the stock solution to a dosing cup and diluting to the final volume with deionized water. Oral tacrolimus is administered using commercially-available Prograf® capsules, with each capsule containing 1 mg tacrolimus and the excipient lactose.
In Period 1, all subjects received only a single dose of oral tacrolimus (1 mg).
In Period 2, all subjects received 3× daily oral doses of Q-Captisol on Days 12, 13, and 14. On Day 14, subjects received a single dose of oral tacrolimus (1 mg)
In Period 3, i.v. infusions of Q-Captisol are administered over 20 min via an indwelling cannula. Tacrolimus (1 mg) is administered orally 60 min after the start of the administration of the i.v. Q-Captisol dose.
The dosing regimen is as follows:
Period 1: Day 1: single oral dose of 1 mg tacrolimus
Period 2: Day 12: three times per day (Q 8 hrs) single oral dose of 100 mg Q-Captisol
Day 13: three times per day (Q 8 hrs) single oral dose of 100 mg Q-Captisol
Day 14: three times per day (Q 8 hrs) single oral dose of 100 mg Q-Captisol, with a single oral dose of 1 mg tacrolimus following the first dose of Q-Captisol.
Period 3: Day 25: single IV infusion of 100 mg Q-Captisol followed by a single oral dose of 1 mg tacrolimus.
In Period 1, blood samples for determination of tacrolimus pharmacokinetics are obtained at 0 min (pre-dose), then at 0.25, 0.5, 1, 2, 4, 8, 12, 24, 48, and 72 hr. Similar time periods are used to obtain tacrolimus blood sampled in Periods 2 and 3. Blood samples (0.4 ml) are withdrawn into K2-EDTA tubes from either an indwelling cannula or via venipuncture, then processed to yield plasma. Plasma samples are transferred to fresh tubes and frozen prior to shipment to the analytical laboratory.
The tacrolimus concentrations in plasma are determined using validated assay methods via an LC/MS/MS analytical technique. Major pharmacokinetic parameters, including area under the concentration versus time curve from time zero to the time of last measurable concentration (AUCt), area under the concentration versus time curve from time zero to infinite time (AUCinf), maximum observed concentration (Cmax), time to reach maximum observed blood or plasma concentration (Tmax), apparent terminal elimination rate constant (Kcl), clearance (CL), and half-life (T1/2), are determined from the plasma concentration data. Samples are analysed from all 15 subjects; one subject is a clear outlier and is excluded from the final analysis (N=14 subjects per dose regimen).

rats = test: Blood glucose levels in rats co-administered tacrolimus and flavonoid-sulfobutylether-7-β-cyclodextrin; format: in vivo, rat
Description: One set of 5 rats is treated from day 1 to day 25 with inert vehicle 2 intraperitoneally and treated from day 11 to day 25 with inert vehicle 1 intraperitoneally. […] A third set 5 of rats is treated from day 1 to day 25 intraperitoneally with tacrolimus (Prograf®) at 0.5 mg/kg, and treated from day 11 to day 25 with sulfobutylether-7-β-cyclodextrin (Q-Captisol) at 100 mg/kg. A fourth set 5 of rats is treated from day 1 to day 25 intraperitoneally with tacrolimus (Prograft®) at 0.5 mg/kg, and treated from day 11 to day 25 with fisetin-sulfobutylether-7-β-cyclodextrin (Fisetin-Captisol) at 85 mg/kg. The blood glucose level in the rats was measured on days 1, 10, 15, 20, and 25.

[2] = Period 1: single oral dose 1 mg tacrolimus alone
[3] = Period 2: 1 mg oral tacrolimus + Q-Captisol po 100 mg three times per day Days 12-14
[4] = male, plasma, Period 1: single oral dose 1 mg tacrolimus alone
[5] = male, plasma, Period 2: 1 mg oral tacrolimus + Q-Captisol po 100 mg three times per day Days 12-14
[6] = male, plasma, Period 3: 1 mg oral tacrolimus after single IV infusion of 100 mg Q-Captisol
[7] = 5 rats, Prograf 0.5 mg/kg i.p. once daily from Day 1 + Vehicle 1 from Day 11
[8] = rats, Prograf 0.5 mg/kg i.p. + Vehicle 1
[9] = rats, Prograf 0.5 mg/kg i.p. once daily from Day 1 + Vehicle 1 from Day 11

C=CC[C@@H]1/C=C(\C)C[C@H](C)C[C@H](OC)[C@H]2O[C@@](O)(C(=O)C(=O)N3CCCC[C@H]3C(=O)O[C@H](/C(C)=C/[C@@H]3CC[C@@H](O)[C@H](OC)C3)[C@H](C)[C@@H](O)CC1=O)[C@H](C)C[C@@H]2OC [tacrolimus]
CL [1, 2]: 4.75 mL/min/kg
Vd [1, 2]: 8.5 L/kg
CL [1, 3]: 3.53 mL/min/kg
Vd [1, 3]: 8.4 L/kg
AUC [1, 4]: 48.8 ng·h/mL
Cmax [1, 4]: 5.8 ng/mL
Tmax [1, 4]: 1.56 h
half-life [1, 4]: 20.8 h
AUC [1, 5]: 65.7 ng·h/mL
Cmax [1, 5]: 6.5 ng/mL
Tmax [1, 5]: 1.28 h
half-life [1, 5]: 27.7 h
AUC [1, 6]: 56.3 ng·h/mL
Cmax [1, 6]: 6.4 ng/mL
Tmax [1, 6]: 1.55 h
clearance [1, 6]: 4.08 mL/min/kg
half-life [1, 6]: 19.9 h
Vd ([1]; male, plasma, Period 3: 1 mg oral tacrolimus after single IV infusion of 100 mg Q-Captisol, read-out: Vd): 7.1 L/kg
Blood glucose Day 1, Mean (rats; [7]): 1.27 g/L
Blood glucose Day 10, Mean (rats; [7]): 1.49 g/L
Blood glucose Day 15, Mean (rats; [7]): 2.54 g/L
Blood glucose Day 20, Mean (rats; [7]): 2.93 g/L
Blood glucose Day 25, Mean (rats; [7]): 2.55 g/L
Blood glucose, Mean change from Day 1, Day 10 (rats; [8]): +0.22 g/l
Blood glucose, Mean change from Day 1, Day 15 (rats; [8]): +1.27 g/l
Blood glucose, Mean change from Day 1, Day 20 (rats; [8]): +1.66 g/l
Blood glucose, Mean change from Day 1, Day 25 (rats; [8]): +1.28 g/l
Blood glucose, Mean change from all vehicle control, Day 1 (rats; [8]): -0.10 g/L
Blood glucose, Mean change from all vehicle control, Day 10 (rats; [8]): +0.23 g/l
Blood glucose, Mean change from all vehicle control, Day 15 (rats; [8]): +1.27 g/l
Blood glucose, Mean change from all vehicle control, Day 20 (rats; [8]): +1.81 g/l
Blood glucose, Mean change from all vehicle control, Day 25 (rats; [8]): +1.38 g/l
Blood glucose Day 1, individual rats (rats; [9]): 1.16 g/l (2×) and 1.34 g/l and 1.22 g/l and 1.47 g/l
Blood glucose Day 10, individual rats (rats; [9]): 1.30 g/L and 1.39 g/L and 1.40 g/L and 1.09 g/L and 2.25 g/L
Blood glucose Day 15, individual rats (rats; [9]): 3.72 g/L and 1.67 g/L and 2.31 g/L and 1.97 g/L and 3.02 g/L
Blood glucose Day 20, individual rats (rats; [9]): 2.79 g/L and 3.70 g/L and 2.97 g/L and 2.41 g/L and 2.77 g/L
Blood glucose Day 25, individual rats (rats; [9]): 0.97 g/L and 3.16 g/L and 1.69 g/L and 2.98 g/L and 3.96 g/L
